Results: PMC1563472, “In vitro growth inhibition of bloodstream forms of Trypanosoma brucei and Trypanosoma congolense by iron chelators” (Kinetoplastid Biology and Disease, 2006)
Where two headings read alike, the source gives them in different places.

Experiments:
[1] = system: bloodstream forms of T. brucei 427-221a; assay: Alamar Blue growth inhibition assay, T. brucei bloodstream forms; format: cell-based, Trypanosoma brucei; conditions: for IC50: read-out: IC50 T. brucei; for IC50 ratio T. brucei/HL-60: IC50 ratio of cytotoxic to trypanocidal activity (selectivity index)
Method: (§1) The anti-trypanosomal activities and the general cytotoxicities of chelators were evaluated using the Alamar Blue® assay. For each reagent, the 50% inhibitory concentration (IC50) value, i.e. the concentration of a compound necessary to reduce the growth rate of the cells by 50% of that of controls, was determined.
(§2) Bloodstream forms of T. brucei TC221 was derived from the stock 427 [24] and was obtained from Prof. Peter Overath (Max-Planck Institute für Biologie, Tübingen, Germany). The animal origin of the T. brucei stock 427 cannot be definitely clarified anymore. Bloodstream forms of T. congolense STIB910 was cloned from T. congolense STIB249 which was isolated from a lion in Tansania in 1971 [25]. T. congolense STIB910 was kindly provided by Prof. Reto Brun (Swiss Tropical Institute, Switzerland). Human myeloid leukaemia HL-60 cells were obtained from the Deutsche Sammlung von Mikroorganismen und Zellkulturen GmbH (Braunschweig, Germany).
(§3) Bloodstream forms of T. brucei and T. congolense were grown in Baltz medium (EMEM plus 25 mM HEPES, 2.5 mM glucose, 1 mM Na-pyruvate, 0.05 mM hypoxanthine, 0.001 mM thymidine, 0.04 mM adenosine, 0.025 mM bathocuproindisulfonic acid, pH 7.5, 10 ml/l nonessential amino acids (100×)) supplemented with 16.7% heat-inactivated foetal bovine serum and goat serum, respectively, and 0.2 mM 2-mercaptoethanol. Human myeloid leukaemia HL-60 cells were propagated in RPMI 1640 medium supplemented with 2 mM L-glutamine and 10% heat-inactivated foetal bovine serum. All cultures were maintained in a humidified atmosphere containing 5% CO2 at 37°C (T. brucei and HL-60 cells) or at 34°C (T. congolense).
(§4) Cells were seeded into 96-well tissue culture plates in 200 μl medium containing various concentrations of chelators dissolved in H2O (deferoxamine, 2,3-dihydroxybenzoic acid, ethylenediamine-di-o-hydroxyphenylacetic acid, 5-sulfosalicylic acid, tropolone, 5-methyl-tropolone, 2,2'-bipyridine, 1,10-phenanthroline), 99% ethanol (2,4,6-tris(2pyridyl)-1,3,5-triazine, 4,7-diphenyl-1,10-phenanthroline, 8-hydroxyquinoline, dimethylglyoxime, quercetin), or 100% DMSO (bathocuproine). The controls contained the respective solvent alone. […] To ensure that the cells were in logarithmic growth phase during the entire experiment, they were seeded at an initial density of 1 × 10^4 T. brucei/ml, 4 × 10^5 T. congolense/ml, and 1 × 10^5 HL-60/ml, respectively. After 24 h (trypanosomes) or 43 h (HL-60) incubation, 20 μl of the colorimetric viability indicator Alamar Blue® was added to each well. The cells were incubated for a further 24 h (trypanosomes) or 5 h (HL-60) so that the total incubation time was 48 h. Then, the plates were read on a Dynatech MR5000 ELISA reader (Denkendorf, Germany), using a test wavelength of 550 nm and a reference wave length of 630 nm. Each test was set up in duplicate and repeated three times. The IC50 value was determined by linear interpolation according to the method described in [27].

[2] = system: bloodstream forms of T. congolense STIB910; assay: Alamar Blue growth inhibition assay, T. congolense bloodstream forms; format: cell-based, Trypanosoma congolense; conditions: for IC50: read-out: IC50 T. congolense; for IC50 ratio T. congolense/HL-60: IC50 ratio of cytotoxic to trypanocidal activity (selectivity index)
Method: as §1, §2, §3, §4

[3] = system: human myeloid leukaemia HL-60 cells; assay: Alamar Blue general cytotoxicity assay, HL-60 cells; format: cell-based; conditions: read-out: IC50 HL-60 cells
Method: as §1, §2, §3, §4

[4] = system: bloodstream forms of T. congolense STIB910; set-up: method as in PMID 11582539; conditions: bloodstream forms of T. congolense STIB910, identical experimental conditions; cited from earlier work
[5] = system: bloodstream forms of T. brucei 427-221a; set-up: method as in PMID 11582539; conditions: cited from earlier work
[6] = Trypanosoma congolense, STIB910, 48 h
[7] = Trypanosoma brucei, bloodstream forms T. brucei 427-221a, 48 h total incubation, Alamar Blue, 37°C
[8] = Trypanosoma congolense, bloodstream forms T. congolense STIB910, 48 h total incubation, Alamar Blue, 34°C
[9] = human myeloid leukaemia HL-60 cells, 48 h total incubation, Alamar Blue
[10] = bloodstream forms T. brucei 427-221a, 48 h total incubation, Alamar Blue, 37°C

Row | SMILES | IC50 ratio T. brucei/HL-60 [1] | IC50 [1, 7] [µM] | IC50 ratio T. congolense/HL-60 [2] | IC50 [2, 8] [µM] | IC50 [3, 9] [µM] | other results
1 | O=C(O)c1cc(S(=O)(=O)O)ccc1O [5-Sulfosalicylic acid] |  |  |  |  |  | IC50 ([1]; Trypanosoma brucei, 48 h): > 1000 µM; IC50 [2, 6]: > 1000 µM; IC50 ([3]; Homo sapiens, HL-60, 48 h): > 1000 µM
2 | c1ccc(-c2ccccn2)nc1 [2,2'-Bipyridine] |  |  |  |  |  | IC50 ([1]; Trypanosoma brucei, 48 h): 46.2 µM; IC50 [2, 6]: 67 µM; IC50 ([3]; Homo sapiens, HL-60, 48 h): 28.3 µM
3 | CC(=O)NCC(=O)O.CC(=O)NCC(=O)O.N=C(N)c1ccc(N=NNc2ccc(C(=N)N)cc2)cc1 [diminazene aceturate] |  |  |  |  |  | IC50 [4]: 0.5 µM
4 | O=c1cccccc1O [Tropolone] | 0.5 | 12.5 | 0.3 | 18.7 | 6.2 | 
5 | CC(=O)N(O)CCCCCNC(=O)CCC(=O)N(O)CCCCCNC(=O)CCC(=O)N(O)CCCCCN [Deferoxamine] |  |  |  |  |  | IC50 ([1]; Trypanosoma brucei, 48 h): 3.3 µM; IC50 [2, 6]: 3.4 µM; IC50 ([3]; Homo sapiens, HL-60, 48 h): 97 µM
6 | CC(=NO)C(C)=NO [Dimethylglyoxime] |  | > 100 |  | > 100 | > 100 | 
7 | Cc1ccc(C(=O)Nc2ccc(S(=O)(=O)O)c3cc(S(=O)(=O)O)cc(S(=O)(=O)O)c23)cc1NC(=O)c1cccc(NC(=O)Nc2cccc(C(=O)Nc3cc(C(=O)Nc4ccc(S(=O)(=O)O)c5cc(S(=O)(=O)O)cc(S(=O)(=O)O)c45)ccc3C)c2)c1 [suramin] |  |  |  |  |  | IC50 ([5]; bloodstream forms of T. brucei 427-221a, identical experimental conditions): 0.4 µM; IC50 ratio (selectivity index) ([5]; cytotoxic/trypanocidal activity, drug used for sleeping sickness): 1944
8 | O=C(O)c1cccc(O)c1O [2,3-Dihydroxybenzoic acid] |  | 220 |  |  |  | 
9 | c1ccc(-c2ccnc3c2ccc2c(-c4ccccc4)ccnc23)cc1 [4,7-Diphenyl-1,10-phenanthroline] |  | 2 |  | 4.5 | 48.3 | 
10 | O=c1c(O)c(-c2ccc(O)c(O)c2)oc2cc(O)cc(O)c12 [Quercetin] | >6.1 | 16.3 | >1.6 | 62.6 | > 100 | 
11 | Cc1ccc(O)c(=O)cc1 [5-Methyl-tropolone] | 2.0 |  | 1.6 |  | 31.1 | IC50 [1, 10]: 15.7 µM; IC50 ([2]; bloodstream forms T. congolense STIB910, 48 h total incubation, Alamar Blue, 34°C): 20 µM
12 | Oc1cccc2cccnc12 [8-Hydroxyquinoline] |  |  |  |  |  | IC50 ([1]; Trypanosoma brucei, 48 h): 2.1 µM; IC50 [2, 6]: 206 µM; IC50 ([3]; Homo sapiens, HL-60, 48 h): 7.7 µM
13 | c1ccc(-c2nc(-c3ccccn3)nc(-c3ccccn3)n2)nc1 [2,4,6-Tris(2-pyridyl)-1,3,5-triazine] | 3.2 | 28.6 | 1.2 | 75 | 90.1 | 
14 | Cc1cc(-c2ccccc2)c2ccc3c(-c4ccccc4)cc(C)nc3c2n1 [Bathocuproine, 2,9-dimethyl-4,7-diphenyl-1,10-phenanthroline] | >3.3 | 3 |  | > 10 | > 10 | 
15 | c1cnc2c(c1)ccc1cccnc12 [1,10-Phenanthroline] | 2.6 | 3.3 | 1.6 | 5.3 | 8.5 | 
16 | O=C(O)C(NCCNC(C(=O)O)c1ccccc1O)c1ccccc1O (stereo not drawn) [Ethylenediamine-di-o-hydroxyphenylacetic acid] | 2.7 |  |  |  | 325 | IC50 [1, 10]: 120 µM
